# According to PubChem BioAssay (NCI):
#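 GI50: concentration for 50% inhibition of growth. The concentration for full growth arrest is given as TGI.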
# Tests used:
# Assay in all cases: NCI-60 cell line screen, 384-well format
# K-562 leukemia = tested on: K-562 leukemia
# LOX IMVI melanoma = tested on: LOX IMVI melanoma
# KM12 colon = tested on: KM12 colon
# SNB-19 CNS = tested on: SNB-19 CNS
# NCI-H23 lung = tested on: NCI-H23 lung
# MDA-MB-435 melanoma = tested on: MDA-MB-435 melanoma
# SNB-75 CNS = tested on: SNB-75 CNS
# SF-295 CNS = tested on: SF-295 CNS
# TK-10 renal = tested on: TK-10 renal
# SF-268 CNS = tested on: SF-268 CNS
# HCC-2998 colon = tested on: HCC-2998 colon
# SK-MEL-28 melanoma = tested on: SK-MEL-28 melanoma
# 786-0 renal = tested on: 786-0 renal
# UO-31 renal = tested on: UO-31 renal
# PC-3 prostate = tested on: PC-3 prostate
# U251 glioblastoma = tested on: U251 glioblastoma
# HS 578T breast = tested on: HS 578T breast
# OVCAR-3 ovarian = tested on: OVCAR-3 ovarian
# MCF7 breast = tested on: MCF7 breast
# SK-MEL-5 melanoma = tested on: SK-MEL-5 melanoma
# RXF 393 renal = tested on: RXF 393 renal
# DU-145 prostate = tested on: DU-145 prostate
# HCT-15 colon = tested on: HCT-15 colon
# NCI/ADR-RES ovarian = tested on: NCI/ADR-RES ovarian
# CCRF-CEM leukemia = tested on: CCRF-CEM leukemia
# HCT-116 colon = tested on: HCT-116 colon
# NCI-H322M lung = tested on: NCI-H322M lung
# MALME-3M melanoma = tested on: MALME-3M melanoma
# T-47D breast = tested on: T-47D breast
# IGROV1 ovarian = tested on: IGROV1 ovarian
# CAKI-1 renal = tested on: CAKI-1 renal
# OVCAR-8 ovarian = tested on: OVCAR-8 ovarian
# NCI-H460 NSCLC = tested on: NCI-H460 NSCLC
# HOP-62 NSCLC = tested on: HOP-62 NSCLC
# A549 NSCLC = tested on: A549 NSCLC
# NCI-H522 lung = tested on: NCI-H522 lung
# ACHN renal = tested on: ACHN renal
# SN12C renal = tested on: SN12C renal
# COLO 205 colon = tested on: COLO 205 colon
# RPMI-8226 leukemia = tested on: RPMI-8226 leukemia
# SF-539 CNS = tested on: SF-539 CNS
# MOLT-4 leukemia = tested on: MOLT-4 leukemia
# SW-620 colon = tested on: SW-620 colon
# HT29 colon = tested on: HT29 colon
# NCI-H226 lung = tested on: NCI-H226 lung
# HL-60(TB) leukemia = tested on: HL-60(TB) leukemia
# MDA-MB-231 breast = tested on: MDA-MB-231 breast
# OVCAR-5 ovarian = tested on: OVCAR-5 ovarian
# SK-OV-3 ovarian = tested on: SK-OV-3 ovarian
# SR leukemia = tested on: SR leukemia
# A498 renal = tested on: A498 renal
# HOP-92 NSCLC = tested on: HOP-92 NSCLC
# M14 melanoma = tested on: M14 melanoma
# MDA-MB-468 breast = tested on: MDA-MB-468 breast
# EKVX NSCLC = tested on: EKVX NSCLC
# BT-549 breast = tested on: BT-549 breast
# OVCAR-4 ovarian = tested on: OVCAR-4 ovarian
# UACC-257 melanoma = tested on: UACC-257 melanoma
smiles,measurement,setting,value
CC[C@@]1(c2ccccc2)C2=C(CC(C)(C)CC2=O)Nc2[nH]ncc21,GI50,K-562 leukemia,> 100 µM
same,TGI,K-562 leukemia,> 100 µM
same,GI50,LOX IMVI melanoma,> 100 µM
same,TGI,LOX IMVI melanoma,> 100 µM
same,GI50,KM12 colon,> 100 µM
same,TGI,KM12 colon,> 100 µM
same,GI50,SNB-19 CNS,> 100 µM
same,TGI,SNB-19 CNS,> 100 µM
same,GI50,NCI-H23 lung,> 100 µM
same,TGI,NCI-H23 lung,> 100 µM
same,GI50,MDA-MB-435 melanoma,> 100 µM
same,TGI,MDA-MB-435 melanoma,> 100 µM
same,GI50,SNB-75 CNS,> 100 µM
same,TGI,SNB-75 CNS,> 100 µM
same,GI50,SF-295 CNS,50.9 µM
same,TGI,SF-295 CNS,> 100 µM
same,GI50,TK-10 renal,45.2 µM
same,TGI,TK-10 renal,> 100 µM
same,GI50,SF-268 CNS,> 100 µM
same,TGI,SF-268 CNS,> 100 µM
same,GI50,HCC-2998 colon,> 100 µM
same,TGI,HCC-2998 colon,> 100 µM
same,GI50,SK-MEL-28 melanoma,> 100 µM
same,TGI,SK-MEL-28 melanoma,> 100 µM
same,GI50,786-0 renal,> 100 µM
same,TGI,786-0 renal,> 100 µM
same,GI50,UO-31 renal,47.1 µM
same,TGI,UO-31 renal,> 100 µM
same,GI50,PC-3 prostate,> 100 µM
same,TGI,PC-3 prostate,> 100 µM
same,GI50,U251 glioblastoma,96.6 µM
same,TGI,U251 glioblastoma,> 100 µM
same,GI50,HS 578T breast,64.6 µM
same,TGI,HS 578T breast,> 100 µM
same,GI50,OVCAR-3 ovarian,> 100 µM
same,TGI,OVCAR-3 ovarian,> 100 µM
same,GI50,MCF7 breast,> 100 µM
same,TGI,MCF7 breast,> 100 µM
same,GI50,SK-MEL-5 melanoma,> 100 µM
same,TGI,SK-MEL-5 melanoma,> 100 µM
same,GI50,RXF 393 renal,66.3 µM
same,TGI,RXF 393 renal,> 100 µM
same,GI50,DU-145 prostate,> 100 µM
same,TGI,DU-145 prostate,> 100 µM
same,GI50,HCT-15 colon,60 µM
same,TGI,HCT-15 colon,> 100 µM
same,GI50,NCI/ADR-RES ovarian,> 100 µM
same,TGI,NCI/ADR-RES ovarian,> 100 µM
same,GI50,CCRF-CEM leukemia,> 100 µM
same,TGI,CCRF-CEM leukemia,> 100 µM
same,GI50,HCT-116 colon,66.9 µM
same,TGI,HCT-116 colon,> 100 µM
same,GI50,NCI-H322M lung,> 100 µM
same,TGI,NCI-H322M lung,> 100 µM
same,GI50,MALME-3M melanoma,> 100 µM
same,TGI,MALME-3M melanoma,> 100 µM
same,GI50,T-47D breast,> 100 µM
same,TGI,T-47D breast,> 100 µM
same,GI50,IGROV1 ovarian,> 100 µM
same,TGI,IGROV1 ovarian,> 100 µM
same,GI50,CAKI-1 renal,> 100 µM
same,TGI,CAKI-1 renal,> 100 µM
same,GI50,OVCAR-8 ovarian,> 100 µM
same,TGI,OVCAR-8 ovarian,> 100 µM
same,GI50,NCI-H460 NSCLC,35 µM
same,TGI,NCI-H460 NSCLC,> 100 µM
same,GI50,HOP-62 NSCLC,> 100 µM
same,TGI,HOP-62 NSCLC,> 100 µM
same,GI50,A549 NSCLC,> 100 µM
same,TGI,A549 NSCLC,> 100 µM
same,GI50,NCI-H522 lung,> 100 µM
same,TGI,NCI-H522 lung,> 100 µM
same,GI50,ACHN renal,> 100 µM
same,TGI,ACHN renal,> 100 µM
same,GI50,SN12C renal,> 100 µM
same,TGI,SN12C renal,> 100 µM
same,GI50,COLO 205 colon,> 100 µM
same,TGI,COLO 205 colon,> 100 µM
same,GI50,RPMI-8226 leukemia,54.7 µM
same,TGI,RPMI-8226 leukemia,> 100 µM
same,GI50,SF-539 CNS,> 100 µM
same,TGI,SF-539 CNS,> 100 µM
same,GI50,MOLT-4 leukemia,> 100 µM
same,TGI,MOLT-4 leukemia,> 100 µM
same,GI50,SW-620 colon,> 100 µM
same,TGI,SW-620 colon,> 100 µM
same,GI50,HT29 colon,> 100 µM
same,TGI,HT29 colon,> 100 µM
same,GI50,NCI-H226 lung,> 100 µM
same,TGI,NCI-H226 lung,> 100 µM
same,GI50,HL-60(TB) leukemia,46.3 µM
same,TGI,HL-60(TB) leukemia,> 100 µM
same,GI50,MDA-MB-231 breast,> 100 µM
same,TGI,MDA-MB-231 breast,> 100 µM
same,GI50,OVCAR-5 ovarian,> 100 µM
same,TGI,OVCAR-5 ovarian,> 100 µM
same,GI50,SK-OV-3 ovarian,> 100 µM
same,TGI,SK-OV-3 ovarian,> 100 µM
same,GI50,SR leukemia,38.8 µM
same,TGI,SR leukemia,> 100 µM
same,GI50,A498 renal,98.6 µM
same,TGI,A498 renal,> 100 µM
same,GI50,HOP-92 NSCLC,> 100 µM
same,TGI,HOP-92 NSCLC,> 100 µM
same,GI50,M14 melanoma,56.9 µM
same,TGI,M14 melanoma,> 100 µM
same,GI50,MDA-MB-468 breast,30.8 µM
same,TGI,MDA-MB-468 breast,> 100 µM
same,GI50,EKVX NSCLC,> 100 µM
same,TGI,EKVX NSCLC,> 100 µM
same,GI50,BT-549 breast,> 100 µM
same,TGI,BT-549 breast,> 100 µM
same,GI50,OVCAR-4 ovarian,> 100 µM
same,TGI,OVCAR-4 ovarian,> 100 µM
same,GI50,UACC-257 melanoma,> 100 µM
same,TGI,UACC-257 melanoma,> 100 µM
